Results taken from patent US20050255097A1, “Modified venom and venom components as anti-retroviral agents” (priority 2004, published 2005).

Assays:
[1] = test system: T cells from peripheral blood; conditions: Mizuno, et al., 1982; cited from earlier work
[2] = pI and pH of protein solutions; assay type: physicochemical
mice = assay type: in vivo
From the text: Administration of a highly toxic substance such as cobratoxin for therapeutic purposes is fraught with obvious difficulties, even when highly diluted. As a diluted substance, its potential effectiveness is reduced, and due to its high affinity for the nAchR, continued use could result in accumulation of the toxin at neuromuscular junctions and the diaphragm with the potential for adverse events. Alpha cobratoxin, of the Thailand cobra, Naja naja kaouthia, is a homogeneous non-glycosylated polypeptide composed of 71 amino acids with a molecular weight of 7821d and a pI of 9.6. Detoxification of alpha-cobratoxin can be achieved by exposure to heat, formamide, hydrogen peroxide, perchloric acid, ozone or other oxidizing agents. The result of exposure of cobratoxin to oxidizing agents is modification of amino acid side chains as well as the lysis of one or more disulfide bonds. […] The procedures used for detoxification described here are based upon the work of Sanders, who preferred the use of hydrogen peroxide (Sanders, et al., 1975). Loss of toxicity by oxidized alpha-neurotoxins (MCTX), as cobratoxin, can be determined by the intraperitoneal (IP) injection of excess levels of the modified protein into mice. […]
The endpoint of the above reactions are most easily determined by assessing the toxicity of the preparation in mice. […]

[3] = assay type: cell-based; conditions: virus not specified
herpesvirus = experiment: Antiviral activity against herpes virus; assay type: cell-based
Semliki Forest virus = experiment: Antiviral activity against Semliki Forest virus (plaque assay); assay type: cell-based
From the text: Alternatively, an enzyme linked immunosorbant assay (ELISA) can evaluate loss of toxicity, as well as potential potency in terms of continued ability to bind to the nAchR. […] This enables a measurement of the depression in binding of the modified neurotoxin to nAchR, indicative of loss of toxicity, while simultaneously indicating a continued ability of the modified toxin to bind to the nAchR providing a measure of potency (Raymond; unpublished data). To test the effectiveness, or potency of detoxified venom, Sanders utilized a plaque assay with Semliki Forest virus (Miller, et al., 1977).

Row | Compound | decrease of E-rosette formation [1] | pH of solution [2] | pI [2] | LD50 in mice (mice; injected subcutaneously or intraperitoneally, death observable within hours) [µg] | time to death (mice; injection of 1.5 mcg, 25 g mouse) [min] | antiviral activity [3] | antiviral activity against herpes (herpesvirus) | antiviral activity against Semliki Forest virus (Semliki Forest virus)
1 | C[N+](C)(C)CCOC(N)=O.[Cl-] [carbamylcholine chloride] | 30%-40% | – | – | – | – | – | – | –
2 | alpha-cobratoxin: native non-glycosylated polypeptide of 71 amino acids from the Thailand cobra, Naja naja kaouthia | – | 8.5 | 9.6 | 1.2 | ≤ 25 | does not demonstrate antiviral activity | does not have any antiviral activity | does not have any antiviral activity
